Laboratory results as given in patent US6737383B1, “Herbicidal oxadiazolidines” (priority 1999, dated 2004).

Legend:
[1] = tested on: bedstraw; assay: Test B pre/postemergence bedstraw; assay type: in vivo, Galium aparine; details: Postemergence
How it was run: (§1)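 Response is a visual 0-to-10 score relative to untreated plants, where 0 means no effect and 10 means complete control, taken twelve to sixteen days after application. Treatments went onto soil at planting and onto foliage of 1- to 4-leaf plants, using a surfactant-containing non-phytotoxic solvent.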

[2] = tested on: blackgrass; assay: Test B pre/postemergence blackgrass; assay type: in vivo, Alopecurus myosuroides
How it was run: as §1

[3] = tested on: surinam grass; assay: Test B pre/postemergence surinam grass; assay type: in vivo, Brachiaria decumbens
How it was run: as §1

[4] = tested on: cocklebur; assay: Test B pre/postemergence cocklebur; assay type: in vivo, Xanthium strumarium
How it was run: as §1

[5] = tested on: corn; assay: Test B pre/postemergence corn; assay type: in vivo, Zea mays
How it was run: as §1

[6] = tested on: crabgrass; assay: Test B pre/postemergence crabgrass; assay type: in vivo, Digitaria sanguinalis
How it was run: as §1

[7] = tested on: giant foxtail; assay: Test B pre/postemergence giant foxtail; assay type: in vivo, Setaria faberii
How it was run: as §1

[8] = tested on: morningglory; assay: Test B pre/postemergence morningglory; assay type: in vivo, Ipomoea hederacea
How it was run: as §1

[9] = tested on: pigweed; assay: Test B pre/postemergence pigweed; assay type: in vivo, Amaranthus retroflexus
How it was run: as §1

[10] = tested on: rape; assay: Test B pre/postemergence rape; assay type: in vivo, Brassica napus
How it was run: as §1

[11] = tested on: soybean; assay: Test B pre/postemergence soybean; assay type: in vivo, Glycine max
How it was run: as §1

[12] = tested on: sugar beet; assay: Test B pre/postemergence sugar beet; assay type: in vivo, Beta vulgaris
How it was run: as §1

[13] = tested on: velvetleaf; assay: Test B pre/postemergence velvetleaf; assay type: in vivo, Abutilon theophrasti
How it was run: as §1

[14] = tested on: wheat; assay: Test B pre/postemergence wheat; assay type: in vivo, Triticum aestivum
How it was run: as §1

[15] = tested on: wild oat; assay: Test B pre/postemergence wild oat; assay type: in vivo, Avena fatua
How it was run: as §1

[16] = tested on: purple nutsedge; assay: Test B pre/postemergence purple nutsedge; assay type: in vivo, Cyperus rotundus
How it was run: as §1

[17] = tested on: rice; assay: Test B flood test rice; assay type: in vivo, Oryza sativa
How it was run: (§2)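 Read-out is a visual response score from 0 (no effect) to 10 (complete control), assigned by comparison with untreated controls. Treatment was applied at the 2-leaf stage, and plants stayed in the greenhouse for twelve to sixteen days before scoring.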

[18] = tested on: smallflower flatsedge; assay: Test B flood test smallflower flatsedge; assay type: in vivo, Cyperus difformis
How it was run: as §2

[19] = tested on: duck salad; assay: Test B flood test duck salad; assay type: in vivo, Heteranthera limosa
How it was run: as §2

[20] = tested on: bamyardgrass; assay: Test B flood test barnyardgrass; assay type: in vivo, Echinochloa crus-galli
How it was run: as §2

[21] = Postemergence, Rate 62 g/ha, scale 0 to 10, 0 is no effect, 10 is complete control
[22] = Postemergence, Rate 125 g/ha, scale of 0 to 10 where 0 is no effect and 10 is complete control
[23] = Postemergence, Rate 250 g/ha, scale of 0 to 10, 0 is no effect, 10 is complete control
[24] = Postemergence, Rate 500 g/ha, scale of 0 to 10 where 0 is no effect and 10 is complete control
[25] = Preemergence, Rate 62 g/ha, scale 0 to 10 (0 no effect, 10 complete control)
[26] = Preemergence, Rate 125 g/ha, scale of 0 to 10 where 0 is no effect and 10 is complete control
[27] = Preemergence, Rate 500 g/ha, scale of 0 to 10 where 0 is no effect and 10 is complete control
[28] = Rate 62 g/ha, flood test species, Pre-emergence, visual evaluation after twelve to sixteen days
[29] = Rate 125 g/ha, under heading Pre-emergence, flood test species, visual evaluation after twelve to sixteen days
[30] = Rate 250 g/ha, Pre-emergence (flood test species), scale 0 to 10, 0 is no effect, 10 is complete control
[31] = Rate 500 g/ha, Pre-emergence section of Table B, 0 to 10 scale (0 no effect, 10 complete control)

For `C=C(C)Cn1c(=O)on(C(=O)N(c2ccccc2)C(C)C)c1=O` [Compound 607], the “Plant response rating, Bedstraw” value ([1]; Rate 62 g/ha, scale 0 to 10, 0 is no effect, 10 is complete control) was 0, the “Plant response rating, Bedstraw” value ([1]; Rate 125 g/ha, scale of 0 to 10 where 0 is no effect and 10 is complete control) was 0 and the “Plant response rating, Blackgrass” value [2, 21] was 0. For the same compound, the “Plant response rating, Blackgrass” value [2, 22] was 4, the “Blackgrass plant response rating” value [2, 23] was 6 and the “Plant response rating, Blackgrass” value [2, 24] was 7. The “Blackgrass plant response rating” value [2, 25] was 4, the “Blackgrass plant response rating” value [2, 26] was 7 and the “Blackgrass plant response rating (0 to 10 scale)” value ([2]; Preemergence, Rate 250 g/ha) was 8. For the same compound, the “Blackgrass plant response rating” value [2, 27] was 9, the “Plant response rating, B. signalgrass” value [3, 21] was 0 and the “Plant response rating, B. signalgrass” value [3, 22] was 0. The “B. signalgrass plant response rating” value [3, 23] was 4, the “Plant response rating, B. signalgrass” value [3, 24] was 7 and the “B. signalgrass plant response rating” value [3, 25] was 4. For the same compound, the “B. signalgrass plant response rating” value [3, 26] was 7, the “B. signalgrass plant response rating (0 to 10 scale, 0 is no effect, 10 is complete control)” value ([3]; Preemergence, Rate 250 g/ha) was 8 and the “B. signalgrass plant response rating” value [3, 27] was 8. The “Plant response rating, Cocklebur” value [4, 21] was 0, the “Plant response rating, Cocklebur” value [4, 22] was 0 and the “Cocklebur plant response rating” value [4, 23] was 0. For the same compound, the “Plant response rating, Cocklebur” value [4, 24] was 0, the “Cocklebur plant response rating” value [4, 25] was 0 and the “Cocklebur plant response rating” value [4, 26] was 0. The “Cocklebur plant response rating (0 to 10 scale)” value ([4]; Preemergence, Rate 250 g/ha) was 0, the “Plant response rating, Cocklebur” value [4, 27] was 0 and the “Plant response rating, Corn” value [5, 21] was 0. The “Plant response rating, Corn” value [5, 22] was 0, the “Corn plant response rating” value [5, 23] was 0 and the “Plant response rating, Corn” value [5, 24] was 2. For the same compound, the “Corn plant response rating” value [5, 25] was 0, the “Corn plant response rating” value [5, 26] was 0 and the “Corn plant response rating (0 to 10 scale)” value ([5]; Preemergence, Rate 250 g/ha) was 0. The “Plant response rating, Corn” value [5, 27] was 6, the “Plant response rating, Crabgrass” value [6, 21] was 5 and the “Crabgrass plant response rating” value [6, 23] was 8. The “Plant response rating, Crabgrass” value [6, 24] was 9, the “Crabgrass plant response rating” value [6, 25] was 7 and the “Crabgrass plant response rating” value [6, 26] was 8. The “Plant response rating, Crabgrass” value [6, 27] was 9, the “Plant response rating, Giant foxtail” value [7, 21] was 6 and the “Plant response rating, Giant foxtail” value [7, 22] was 6. The “Giant foxtail plant response rating” value [7, 23] was 7, the “Plant response rating, Giant foxtail” value [7, 24] was 9 and the “Giant foxtail plant response rating” value [7, 25] was 9. The “Giant foxtail plant response rating” value [7, 26] was 10, the “Plant response rating, Giant foxtail” value [7, 27] was 10 and the “Plant response rating, Morningglory” value [8, 21] was 6. The “Plant response rating, Morningglory” value [8, 22] was 8, the “Morningglory plant response rating” value [8, 23] was 8 and the “Plant response rating, Morningglory” value [8, 24] was 10. For the same compound, the “Morningglory plant response rating” value [8, 25] was 0, the “Morningglory plant response rating” value [8, 26] was 0 and the “Plant response rating, Morningglory” value [8, 27] was 0. The “Plant response rating, Redroot pigweed” value [9, 21] was 0, the “Plant response rating, Redroot pigweed” value [9, 22] was 0 and the “Redroot pigweed plant response rating” value [9, 23] was 0. For the same compound, the “Plant response rating, Redroot pigweed” value [9, 24] was 5, the “Redroot pigweed plant response rating” value [9, 25] was 4 and the “Redroot pigweed plant response rating” value [9, 26] was 7. The “Plant response rating, Redroot pigweed” value [9, 27] was 10, the “Plant response rating, Rape” value [10, 21] was 0 and the “Plant response rating, Rape” value [10, 22] was 0. For the same compound, the “Rape plant response rating” value [10, 23] was 0, the “Plant response rating, Rape” value [10, 24] was 0 and the “Rape plant response rating” value [10, 25] was 0. The “Rape plant response rating” value [10, 26] was 6, the “Plant response rating, Rape” value [10, 27] was 7 and the “Plant response rating, Soybean” value [11, 21] was 3. For the same compound, the “Plant response rating, Soybean” value [11, 22] was 4, the “Soybean plant response rating” value [11, 23] was 6 and the “Soybean plant response rating” value [11, 25] was 0. The “Soybean plant response rating” value [11, 26] was 0, the “Plant response rating, Soybean” value [11, 27] was 4 and the “Plant response rating, Sugarbeets” value [12, 21] was 0. The “Plant response rating, Sugarbeets” value [12, 22] was 0, the “Sugarbeets plant response rating” value [12, 23] was 0 and the “Plant response rating, Sugarbeets” value [12, 24] was 0. The “Sugarbeets plant response rating” value [12, 25] was 0, the “Sugarbeets plant response rating” value [12, 26] was 0 and the “Plant response rating, Sugarbeets” value [12, 27] was 5. The “Plant response rating, Velvetleaf” value [13, 21] was 0, the “Plant response rating, Velvetleaf” value [13, 22] was 0 and the “Velvetleaf plant response rating” value [13, 23] was 3. The “Plant response rating, Velvetleaf” value [13, 24] was 5, the “Velvetleaf plant response rating” value [13, 25] was 0 and the “Velvetleaf plant response rating” value [13, 26] was 3. For the same compound, the “Plant response rating, Velvetleaf” value [13, 27] was 8, the “Plant response rating, Wheat” value [14, 21] was 0 and the “Plant response rating, Wheat” value [14, 22] was 0. The “Wheat plant response rating” value [14, 23] was 2, the “Plant response rating, Wheat” value [14, 24] was 4 and the “Wheat plant response rating” value [14, 25] was 0. The “Wheat plant response rating” value [14, 26] was 0, the “Plant response rating, Wheat” value [14, 27] was 3 and the “Plant response rating, Wild oats” value [15, 21] was 0. The “Plant response rating, Wild oats” value [15, 22] was 0, the “Wild oats plant response rating” value [15, 23] was 0 and the “Plant response rating, Wild oats” value [15, 24] was 4. For the same compound, the “Wild oats plant response rating” value [15, 25] was 0, the “Wild oats plant response rating” value [15, 26] was 2 and the “Plant response rating, Wild oats” value [15, 27] was 6. The “Plant response rating, Nutsedge” value [16, 21] was 0, the “Plant response rating, Nutsedge” value [16, 22] was 0 and the “Nutsedge plant response rating” value [16, 23] was 0. The “Plant response rating, Nutsedge” value [16, 24] was 7, the “Nutsedge plant response rating” value [16, 26] was 0 and the “Plant response rating, Nutsedge” value [16, 27] was 0. The “Plant response rating, Rice (0 to 10 scale, 0 is no effect, 10 is complete control)” value [17, 28] was 0, the “Rice plant response rating (0 to 10 scale, 0 is no effect, 10 is complete control)” value [17, 29] was 0 and the “Rice plant response rating” value [17, 30] was 0. The “Rice plant response rating” value [17, 31] was 0, the “Plant response rating, S. Flatsedge (0 to 10 scale, 0 is no effect, 10 is complete control)” value [18, 28] was 0 and the “S. Flatsedge plant response rating (0 to 10 scale, 0 is no effect, 10 is complete control)” value [18, 29] was 0. For the same compound, the “S. Flatsedge plant response rating” value [18, 30] was 0, the “S. Flatsedge plant response rating” value [18, 31] was 0 and the “Plant response rating, Ducksalad (0 to 10 scale, 0 is no effect, 10 is complete control)” value [19, 28] was 0. For the same compound, the “Ducksalad plant response rating (0 to 10 scale, 0 is no effect, 10 is complete control)” value [19, 29] was 0, the “Ducksalad plant response rating” value [19, 30] was 0 and the “Ducksalad plant response rating” value [19, 31] was 0. For the same compound, the “Plant response rating, Barnyardgrass (0 to 10 scale, 0 is no effect, 10 is complete control)” value [20, 28] was 0, the “Barnyardgrass plant response rating (0 to 10 scale, 0 is no effect, 10 is complete control)” value [20, 29] was 0 and the “Barnyardgrass plant response rating” value [20, 30] was 0. The “Barnyardgrass plant response rating” value [20, 31] was 0.
